# Tests used:
# [1] = system: white wine grape cultivar 'Semillon'; experiment: Semillon field experiment: standard maturity berry measurements at harvest; format: in vivo, grapevine; conditions: for Baume: Semillon berries at harvest (54 days after veraison); for Titratable Acidity / pH: Semillon berries at harvest
# Method: (§1) A replicated field experiment was conducted on the white wine grape cultivar ‘Semillon’ in the Riverina growing region of New South Wales, Australia to test the effect of S-ABA on white grapes. Four treatments were tested: Untreated control, 200 ppm S-ABA applied at pre-veraison, 200 ppm S-ABA applied at veraison, and 200 ppm S-ABA applied during the post-veraison period (berry sugar level of 10-11 Baume (18-20° brix)). There were 4 replicates of each treatment and the experiment was laid out in a randomized complete block (RCB) design. S-ABA was applied using a commercial airblast sprayer. S-ABA was applied at a concentration of 200 ppm in a volume of approximately 2000 L/Ha (approximately 200 gallons/A) in order to achieve thorough and complete coverage of the grape bunches. A 20% S-ABA soluble granule formulation was utilized in the experiment. The commercial surfactant Agral was included at a rate of 10 ml/100 L spray. Applications of S-ABA were made at pre-veraison (approximately 3 weeks before veraison or berry softening), veraison, and during the post-veraison period when the grape sugar levels had reached approximately 10-11 Baume (18-20° brix). The 10-11 Baume application took place 36 days after the veraison application. Irrigation, summer pruning, insecticide/fungicides and other routine vine management practices were the same as those practiced commercially by the grower in the adjacent parts of the vineyard.
# (§2) Grape samples were harvested at the time of commercial harvest for berry analysis and table wine production. For the standard maturity berry measurements, 12-20 bunches per replicate were sampled. Bunches were randomly selected from both sides of the vines. Samples were analyzed using standard analytical methods used by the grape and wine industry. For additional spectral analyses, samples of 100 berries from each treatment were collected prior to winemaking.
# [2] = system: white wine grape cultivar 'Semillon'; experiment: Semillon field experiment: spectral analysis of berries at harvest; format: in vivo, grapevine
# Method: as §1, §2
# [3] = system: white wine grape cultivar 'Semillon'; experiment: Semillon wine chemical (spectral) analysis; format: in vivo, grapevine
# Method: as §1
# (§3) Wine was produced from the grapes from each of the S-ABA treatments. Small lot primary fermentations were conducted and the wine was bottled. Triplicate ferments of each treatment were conducted using approximately 3×50 kg of grapes. Each replicate ferment contained an equal volume of grapes from each of the four field replicates. Grapes were harvested from the central panels within each replicate. All grapes were harvested from both sides of the vines from these panels. The grapes were transferred immediately to the experimental winery, protected from heat and treated with sulfur dioxide. A standard winemaking protocol used for small-scale replicated primary fermentations was followed. Following the fermentation, the wine was bottled.
# (§4) Chemical analyses were conducted on the wines prepared from the various treatments in the field experiment using industry standard analytical methods.
# [4] = system: white wine grape cultivar 'Semillon'; experiment: Semillon wine sensory analysis: straight judgment of difference test; format: in vivo, grapevine; conditions: for Statistically significant (difference from reference wine) / Number of tasters who selected as different from reference wine/Total number of tasters: Semillon wine; for Number of tasters who selected as different from reference wine/Total number of tasters: reference = untreated control
# Method: as §1, §3
# (§5) Sensory analysis was conducted on the treated and untreated wines. A panel consisting of nine experienced wine tasters evaluated the wines for aroma and taste. The wine grape cultivar was identified, but no information regarding the field treatments was identified to the tasters.
# A straight judgment of difference test was conducted to determine if the wines were different from the untreated control. […] Therefore, these wines can be considered to be different from the reference wine, thereby implying a treatment effect.
# [5] = system: white wine grape cultivar 'Semillon'; experiment: Semillon wine descriptive analysis; format: in vivo, grapevine; conditions: for Aroma (descriptor): untreated: low aroma, some fruit; for Color (descriptor): untreated: pale straw
# Method: as §1, §3, §5
# A wine descriptive analysis was also conducted for the Semillon wines prepared from the untreated control and from the S-ABA treatments. The panels provided descriptive terms to characterize the aroma, taste and color profile of each wine. The methodology used was based on survey-style collection with a thematic analysis to pull out the most consistent terms (Table 5).
# [6] = system: white wine grape cultivar 'Semillon'; experiment: Semillon grape tasting panel; format: in vivo, grapevine; conditions: Semillon grapes sampled at preharvest and at harvest; panel of three tasters; 200 ppm S-ABA
# Method: as §1, with “Irrigation, summer pruning, insecticide/fungicides and other routine vine management practices were the same as those practiced commercially by the grower in the adjacent parts of the vineyard.” left out
# [7] = system: white wine grape cultivar 'Chardonnay'; experiment: Chardonnay field experiment: standard maturity berry measurements at harvest; format: in vivo, grapevine; conditions: for Baume: Chardonnay berries at harvest (26 days after veraison); for Titratable Acidity / pH: Chardonnay berries at harvest
# Method: (§6) A large block unreplicated field experiment was conducted on the white wine grape cultivar ‘Chardonnay’ in the Riverina growing region of New South Wales, Australia to test the effect of S-ABA on white grapes. Three treatments were tested: Untreated control, 200 ppm S-ABA applied at pre-veraison and 200 ppm S-ABA applied at veraison. Each block consisted of 4 rows and covered 0.4 Ha in size. S-ABA was applied using a commercial airblast sprayer. S-ABA was applied at a concentration of 200 ppm in a volume of approximately 1000 L/Ha (approximately 100 gallons/A) in order to achieve thorough and complete coverage of the grape bunches. A 20% S-ABA soluble granule formulation was utilized in the experiment. The commercial surfactant Kendeen 20 was included at a rate of 50 ml/100 L spray. Applications of S-ABA were made at pre-veraison (approximately 3 weeks before veraison or berry softening) and veraison. Irrigation, summer pruning, insecticide/fungicides and other routine vine management practices were the same as those practiced commercially by the grower in the adjacent parts of the vineyard.
# as §2, with “Grapes” for “Grape”
# [8] = system: white wine grape cultivar 'Chardonnay'; experiment: Chardonnay field experiment: spectral analysis of berries at harvest; format: in vivo, grapevine; conditions: for A280 / A320 / A420 / Est. of brown pigments / Total Flavonoids / Total Hydroxycinnamates / Total Phenolics: Chardonnay berries at harvest
# Method: as §6
# as §2, with “Grapes” for “Grape”
# [9] = system: white wine grape cultivar 'Chardonnay'; experiment: Chardonnay wine chemical (spectral) analysis; format: in vivo, grapevine
# Method: as §6
# Wine was produced from the grapes from each of the S-ABA treatments. Small lot primary fermentations were conducted and the wine was bottled. […] ferments of each treatment were conducted using approximately 3×50 kg of grapes. Each replicate ferment contained an equal volume of grapes from entire panels of vines. All grapes were harvest from both sides of the vines from these panels. The grapes were transferred immediately to the experimental winery, protected from heat and treated with sulfur dioxide. A standard winemaking protocol used for small-scale replicated primary fermentations was followed. Following the fermentation, the wine was bottled.
# as §4
# [10] = system: white wine grape cultivar 'Chardonnay'; experiment: Chardonnay wine sensory analysis: straight judgment of difference test; format: in vivo, grapevine; conditions: All Chardonnay wines from the S-ABA treatments; ten tasters; with statistical significance
# Method: as §6
# (§7) Wine was produced from the grapes from each of the S-ABA treatments. […]
# (§8) Sensory analysis was conducted on the S-ABA-treated and untreated wines. A panel consisting of ten experienced wine tasters evaluated the wines for aroma and taste. […]
# [11] = system: white wine grape cultivar 'Chardonnay'; experiment: Chardonnay wine descriptive analysis; format: in vivo, grapevine
# Method: as §6, §7, §8
# [12] = system: white wine grape cultivar 'Chardonnay'; experiment: Chardonnay grape tasting panel; format: in vivo, grapevine; conditions: Chardonnay grapes sampled at preharvest and at harvest; panel of two tasters; 200 ppm S-ABA
# Method: as §6
# [13] = system: grapevines; conditions: application of S-ABA; During and Broquedis 1980; cited from earlier work
# [14] = system: red grapes; conditions: exogenous application to red grapes prior to harvest; literature; cited from earlier work
# [15] = system: grapes; conditions: S-ABA application on grapes; Han et al. 1996; cited from earlier work
# [16] = 200 ppm S-ABA foliar spray applied at pre-veraison
# [17] = 200 ppm S-ABA foliar spray applied at veraison
# [18] = 200 ppm S-ABA applied at pre-veraison
# [19] = 200 ppm S-ABA applied at veraison
# [20] = 200 ppm S-ABA applied post-veraison (11 Baume)
# [21] = Semillon berries at harvest, 200 ppm S-ABA applied at pre-veraison
# [22] = Semillon berries at harvest, 200 ppm S-ABA applied at veraison
# [23] = Semillon berries at harvest, 200 ppm S-ABA applied post-veraison (11 Baume)
# [24] = spectral analysis, 200 ppm S-ABA treatments
substance,measurement,setting,value
"(S)-5-(1-hydroxy-2,6,6,-trimethyl-4-oxo-2-cyclohexen-1-yl)-3-methyl-(2Z,4E)-pentadienoic acid [S-ABA]",Baume,[1]; [16],11.6
same,Baume,[1]; [17],11.7
same,Baume,[1]; 200 ppm S-ABA foliar spray applied post-veraison (11 Baume),11.6
same,Titratable Acidity,[1]; [18],4.5
same,pH,[1]; [18],3.57
same,Titratable Acidity,[1]; [19],4.5
same,pH,[1]; [19],3.56
same,Titratable Acidity,[1]; [20],4.0
same,pH,[1]; [20],3.61
same,"Effect on berry sugar content (Baume), pH, titratable acidity or bunch weight","[1]; Semillon, 200 ppm S-ABA treatments",did not consistently affect
same,A280,[2]; [21],6.62
same,A320,[2]; [21],2.642
same,A420,[2]; [21],0.465
same,Est. of brown pigments,[2]; [21],0.47 a.u.
same,Total Flavonoids,[2]; [21],1.80 a.u.
same,Total Hydroxycinnamates,[2]; [21],1.24 a.u.
same,Total Phenolics,[2]; [21],2.62 a.u.
same,A280,[2]; [22],6.85
same,A320,[2]; [22],2.713
same,A420,[2]; [22],0.471
same,Est. of brown pigments,[2]; [22],0.47 a.u.
same,Total Flavonoids,[2]; [22],1.98 a.u.
same,Total Hydroxycinnamates,[2]; [22],1.31 a.u.
same,Total Phenolics,[2]; [22],2.85 a.u.
same,A280,[2]; [23],6.47
same,A320,[2]; [23],2.59
same,A420,[2]; [23],0.461
same,Est. of brown pigments,[2]; [23],0.46 a.u.
same,Total Flavonoids,[2]; [23],1.68 a.u.
same,Total Hydroxycinnamates,[2]; [23],1.19 a.u.
same,Total Phenolics,[2]; [23],2.47 a.u.
same,Effect on phenolic composition of the berries,"[2]; Semillon berries at harvest, 200 ppm S-ABA treatments",tended to increase
same,"Total phenolics, hydroxycinnamates, total flavonoids and estimated brown pigments (chemical analysis)","[2]; Semillon berries, 200 ppm S-ABA treatments vs untreated",some differences
same,Total Hydroxycinnamates,[3]; [18],0.8700 a.u.
same,Total Hydroxycinnamates,"[3]; 200 ppm S-ABA applied at veraison, untreated control vs. veraison P = 0.0604",0.9033 a.u.
same,Total Hydroxycinnamates,[3]; [20],0.8267 a.u.
same,Levels of hydroxycinnamates in S-ABA treated wines,[3]; [24],higher levels of hydroxycinnamates
same,Judgment of difference from the reference wine (untreated control),"[4]; All Semillon wines from the S-ABA treatments, nine tasters, with statistical significance",judged to be different from the reference wine
same,Statistically significant (difference from reference wine),[4]; [18],Yes
same,Number of tasters who selected as different from reference wine/Total number of tasters,[4]; [18],8/9
same,Statistically significant (difference from reference wine),[4]; [19],Yes
same,Number of tasters who selected as different from reference wine/Total number of tasters,[4]; [19],8/9
same,Statistically significant (difference from reference wine),[4]; [20],Yes
same,Number of tasters who selected as different from reference wine/Total number of tasters,[4]; [20],8/9
same,Taste (descriptor),"[5]; 200 ppm S-ABA applied at pre-veraison, untreated: citrus, acidic",Much more acidic
same,Aroma (descriptor),[5]; [18],More intense fruit
same,Color (descriptor),[5]; [18],Pale straw
same,Aroma (descriptor),[5]; [19],More intense fruit
same,Aroma (descriptor),[5]; [20],More intense fruit
same,Color (descriptor),[5]; [20],Pale straw
same,Effect on fruit aroma and acidic taste of the wine,[5]; 200 ppm S-ABA treatments,increased or intensified
same,Flavor of S-ABA treated grapes vs untreated grapes,[6],notable differences in flavor
same,Baume,[7]; [16],14.3
same,Baume,[7]; [17],14.4
same,Titratable Acidity,[7]; [18],6.2
same,pH,[7]; [18],3.73
same,Titratable Acidity,[7]; [19],6.9
same,pH,[7]; [19],3.60
same,"Effect on berry sugar content (Baume), pH, titratable acidity or bunch weight","[7]; Chardonnay, 200 ppm S-ABA treatments",did not consistently affect
same,A280,[8]; [18],17.37
same,A320,[8]; [18],3.53
same,A420,[8]; [18],0.530
same,Est. of brown pigments,[8]; [18],0.530 a.u.
same,Total Flavonoids,[8]; [18],11.96 a.u.
same,Total Hydroxycinnamates,[8]; [18],2.13 a.u.
same,Total Phenolics,[8]; [18],13.37 a.u.
same,A280,[8]; [19],14.07
same,A320,[8]; [19],3.38
same,A420,[8]; [19],0.567
same,Est. of brown pigments,[8]; [19],0.567 a.u.
same,Total Flavonoids,[8]; [19],8.76 a.u.
same,Total Hydroxycinnamates,[8]; [19],1.98 a.u.
same,Total Phenolics,[8]; [19],10.07 a.u.
same,"Total phenolics, hydroxycinnamates, total flavonoids and estimate of brown pigments (chemical analysis)","[8]; Chardonnay berries, 200 ppm S-ABA treatments vs untreated",some differences
same,Total Hydroxycinnamates,[9]; [18],3.14 a.u
same,Total Phenolics,[9]; [18],2.55 a.u
same,Total Hydroxycinnamates,[9]; [19],3.19 a.u
same,Total Phenolics,[9]; [19],2.97 a.u
same,Balance of hydroxycinnamates and phenolics in S-ABA treated wines,[9]; [24],different balance of hydroxycinnamates and phenolics
same,Judgment of difference from the reference wine (untreated control),[10],judged to be different from the reference wine
same,Descriptive characteristics compared to the Untreated,[11]; [18],"More intense aroma, slightly more mineral and bitterness"
same,Effect on fruit aroma and acidic taste in the wine,[11]; 200 ppm S-ABA treatments,increased or intensified
same,Flavor of S-ABA treated grapes vs untreated grapes,[12],notable differences in flavor
same,Stomatal resistance in grapevines,[13],increase stomatal resistance
same,Accumulation of anthocyanins and red color of grape berry skins,[14],increase the accumulation of anthocyanins and increase the red color
same,Berry and cluster weight,[15],increase berry and cluster weight

# — patent publication US8349768B2, “Use of abscisic acid to alter sensory characteristics of white grapes and wine” (Valent BioSciences Corporation, priority 2007, dated 2013)
